Results taken from PubChem BioAssay (NCI).
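These data come from cells grown in 96-well plates and exposed to compound for 48 hours at five concentrations. At the TGI there is no net growth.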

Tests used:
Test in all cases: NCI tumour cell line growth inhibition, 48 h
786-0 renal = test system: 786-0 renal
A498 renal = test system: A498 renal
A549 NSCLC = test system: A549 NSCLC
ACHN renal = test system: ACHN renal
BT-549 breast = test system: BT-549 breast
CAKI-1 renal = test system: CAKI-1 renal
CCRF-CEM leukemia = test system: CCRF-CEM leukemia
COLO 205 colon = test system: COLO 205 colon
DU-145 prostate = test system: DU-145 prostate
EKVX NSCLC = test system: EKVX NSCLC
HCT-116 colon = test system: HCT-116 colon
HCT-15 colon = test system: HCT-15 colon
HL-60(TB) leukemia = test system: HL-60(TB) leukemia
HOP-62 NSCLC = test system: HOP-62 NSCLC
HOP-92 NSCLC = test system: HOP-92 NSCLC
HS 578T breast = test system: HS 578T breast
HT29 colon = test system: HT29 colon
IGROV1 ovarian = test system: IGROV1 ovarian
K-562 leukemia = test system: K-562 leukemia
KM12 colon = test system: KM12 colon
LOX IMVI melanoma = test system: LOX IMVI melanoma
M14 melanoma = test system: M14 melanoma
MALME-3M melanoma = test system: MALME-3M melanoma
MCF7 breast = test system: MCF7 breast
MDA-MB-231 breast = test system: MDA-MB-231 breast
MDA-N = test system: MDA-N
MOLT-4 leukemia = test system: MOLT-4 leukemia
NCI-H226 lung = test system: NCI-H226 lung
NCI-H23 lung = test system: NCI-H23 lung
NCI-H460 lung = test system: NCI-H460 lung
NCI-H522 lung = test system: NCI-H522 lung
NCI/ADR-RES ovarian = test system: NCI/ADR-RES ovarian
OVCAR-3 ovarian = test system: OVCAR-3 ovarian
OVCAR-4 ovarian = test system: OVCAR-4 ovarian
OVCAR-5 ovarian = test system: OVCAR-5 ovarian
OVCAR-8 ovarian = test system: OVCAR-8 ovarian
PC-3 prostate = test system: PC-3 prostate
RPMI-8226 leukemia = test system: RPMI-8226 leukemia
RXF 393 renal = test system: RXF 393 renal
SF-268 CNS = test system: SF-268 CNS
SF-295 CNS = test system: SF-295 CNS
SF-539 CNS = test system: SF-539 CNS
SK-MEL-2 melanoma = test system: SK-MEL-2 melanoma
SK-MEL-28 melanoma = test system: SK-MEL-28 melanoma
SK-MEL-5 melanoma = test system: SK-MEL-5 melanoma
SK-OV-3 ovarian = test system: SK-OV-3 ovarian
SN12C renal = test system: SN12C renal
SNB-19 CNS = test system: SNB-19 CNS
SNB-75 CNS = test system: SNB-75 CNS
SR leukemia = test system: SR leukemia
SW-620 colon = test system: SW-620 colon
T-47D breast = test system: T-47D breast
TK-10 renal = test system: TK-10 renal
U251 CNS = test system: U251 CNS
UACC-257 melanoma = test system: UACC-257 melanoma
UACC-62 melanoma = test system: UACC-62 melanoma
UO-31 renal = test system: UO-31 renal
HCC-2998 colon = test system: HCC-2998 colon
MDA-MB-435 = test system: MDA-MB-435

Measured: TGI

NN/C(=N\S(=O)(=O)c1cc2ccccc2o1)Nc1ccc(Cl)cc1
85.8 µM: SNB-75 CNS
59.5 µM: HOP-92 NSCLC
68.3 µM: NCI-H522 lung
64.2 µM: RXF 393 renal
97.2 µM: HS 578T breast
not listed: HCC-2998 colon | MDA-MB-435
> 100 µM: all other assays above

CC(C)OC(=O)C1=C2c3ncccc3C(=O)N2[C@@H](Cl)[C@@H](Cl)[C@@H]1Cl
95.9 µM: MOLT-4 leukemia
90.4 µM: SN12C renal
not listed: CCRF-CEM leukemia | SK-OV-3 ovarian | SNB-75 CNS | T-47D breast
> 100 µM: all other assays above
